Test results taken from article PMC7697191, “Identification of Novel Influenza Polymerase PB2 Inhibitors Using a Cascade Docking Virtual Screening Approach” (Molecules, 2020).

Key:
[1] = tested on: PR/8-R292K mutant (H1N1, recombinant oseltamivir-resistant); type: cell-based, influenza A virus (H1N1)
[2] = tested on: PR/8-I38T mutant (H1N1, recombinant baloxavir-resistant); type: cell-based, influenza A virus (H1N1)

Row | SMILES | EC50 [1] [µM] | EC50 [2] [µM]
1 | C=CCn1cc(CNCc2noc(-c3ccc4c(c3)OCO4)n2)c(C)n1 [11D4] | 21.5 ± 5.49 | 32.4 ± 1.52
2 | C=CCn1cc(-c2cc(-c3ccc(C(=O)O)cc3)[nH]c(=N)c2C#N)cn1 [12C5] | 28.6 ± 0.99 | 35.4 ± 1.02
3 | CCSc1ncc(-c2cc(-c3c(C)nn(C)c3C)nc(N)c2C#N)cn1 [21A5] | 9.27 ± 0.55 | 14.1 ± 0.47
4 | Cc1cccnc1CCNc1nc2nonc2nc1NCc1cccs1 [21B1] | 14.6 ± 1.44 | 37 ± 0.67
5 | CCC(CC)O[C@@H]1C=C(C(=O)O)C[C@H](N)[C@H]1NC(C)=O [OC, Oseltamivir carboxylate, reference compound] | > 100 | –
6 | O=C(O)[C@H]1C2CCC(CC2)[C@@H]1Nc1nc(-c2c[nH]c3ncc(F)cc23)ncc1F [VX-787, reference compound] | 4.14 ± 0.66 | 2.34 ± 0.1
